Assay results taken from patent publication US12414559B2, “Mixtures and compositions comprising 5-fluoro-4-imino-3-methyl-1-tosyl-3,4-dihydropyrimidin-2-one, and methods of use thereof” (Adama Makhteshim Ltd., priority 2018, dated 2025).

Assay: Chemical stability on storage: concentration / degradation of compound of Formula I in the composition
Type: physicochemical
Conditions: after 8 weeks of storage at 40° C.
Description: As used herein, the term “stable” when used in connection with chemical stability, e.g, chemically stable, means that the composition meets the chemical stability standards set forth by the Food and Agriculture Organization of the United Nations (FAO) in the Manual on Development and Use of FAO and WHO Specification for Pesticides (First Edition—Third Revision) (the “FAO/WHO Manual”) (available at http://www.fao.gov/agriculture/crops/thematic-sitemap/theme/pests/jmps/manual/en/), the entire content of which is hereby incorporate by reference into the subject application. […] The amount of degradation permitted before the degradation is considered to be significant depends on the concentration of the active ingredients in the composition.
The physical and chemical stability of composition of Example were tested under various conditions including CIPAC conditions.

With Cc1ccc(S(=O)(=O)n2cc(F)c(=N)n(C)c2=O)cc1 [compound of Formula I, 5-fluoro-4-imino-3-methyl-1-tosyl-3,4-dihydropyrimidin-2(1H)-one] the “degradation of the compound of Formula I” value (with Attagel 50 (0.5% by weight) and Bentone SD-1 (0.5% by weight)) was 4% and the “degradation of the compound of Formula I” value (without Attagel 50 and Bentone SD-1) was 7-8%.
